The structures appear in SMILES notation.

Test [1] has as its system Trichophyton mentagrophytes. The test can be described thus: antifungal activity, agar dilution method. Type of test: cell-based, Trichophyton mentagrophytes (ATCC No. 8757 and 9129). The protocol:
(§1) Various compounds of this invention display antifungal and anti-yeast activity.
(§2) In Table IX below are listed the antifungal activity of a number of compounds encompassed in the present invention. These were determined by the agar dilution method as described in Chapters 2 and 3 of Methods in Microbiology, Vol. 7B, edited by J. R. Norris and D. W. Ribbons, Academic Press, New York, 1972.
In general terms: Agar dilution tests growth on a series of plates holding different concentrations.

Test [2] deals with humeral or antibody response. The test can be described thus: hemolysin test in mice. Particulars: s.c., dose to reduce antibody activity by 50% versus control. Type of test: in vivo, mouse.
In test [3] the test system is cell-mediated immune response to the antigen, Mycobacterium tuberculosis H37Ra. The test can be described thus: delayed hypersensitivity test. The test is classed as in vivo, mouse. Particulars: mice, s.c.; dose to reduce edema of cell-mediated immune response by 60% versus control. The protocol:
The immunosuppressant activities of the compounds of this invention were determined via the hemolysin test in mice and by the delayed hypersensitivity test. The hemolysin test used is that described in Methods in Immunology, edited by D. H. Campbell et al, W. A. Benjamin, New York 1963 pages 172-175, and measures humeral or antibody response. The delayed hypersensitivity test measures the effect of a test compound on the ability of a subject mouse to mount a cell-mediated immune response to the antigen, Mycobacterium tuberculosis H37Ra. The mouse is sensitized to the antigen by subcutaneous administration in the base of the tail. The development of the delayed hypersensitivity response may be measured at any time beginning six days after sensitization but is usually done on the ninth day as follows: The right hind paw is injected with purified protein derivative (tuberculin) while the left hind paw (control) receives physiological saline. Both paw volumes are measured after twenty-four hours and significant increase in the volume of the right hand paw is taken as a measure of an effective delayed hypersensitivity response. All compounds were administered by the subcutaneous route.
The D.H.S. (ED60) mg./kg. s.c. value appearing in column 3 is an expression of the effectiveness of the drug in reducing the edema that accompanies the cell-mediated immune response. […]

The next test relates to rat paw edema. The test can be described thus: rat paw edema assay, oral dosing. The test is classed as in vivo. The following applies: four hours after drug. The protocol: The anti-inflammatory activity of representative compounds of this invention was determined by the rat paw edema assay both by local administration (Table XI below) and by oral dosing (Table XII below). For the oral dosing, the procedure of C. A. Winter, E. A. Risley and G. W. Nuss, Proc. Soc. Exp. Biol. Med. 111, 544 (1962) was employed with measurement taken four hours after the drug was administered. The local administration tests were carried out similarly except the irritant (carrageenan) and the test compound were injected simultaneously at time zero. Tables XI and XII report the anti-inflammatory activity of the compounds tested as % difference in the edema or swelling as compared with the control. These Tables also give the response in many instances of more than one dose level of the same drug.

Another test has as its system Trichophyton ajelloi. The test can be described thus: antifungal activity, agar dilution method. The test is classed as cell-based. The protocol: as §1, §2
A further test concerns Trichophyton rubrum. Nature of the test: antifungal activity, agar dilution method. The test is classed as cell-based, Trichophyton rubrum (ATCC No. 10218 and 14001). The protocol: as §1, §2

For `FC(F)(F)c1cccc(-c2nc3ccccc3n3ccnc23)c1` [Compound 136], the “Parts Per Million Inhibitions of T. mentagrophytes” value in test [1] amounted to 100 Parts Per Million. Moreover, the “HL(ED50)” value in test [2] is on record as 2.7 mg/kg. In addition, the “D.H.S. (ED60)” value in test [3] was more than 50 mg/kg. Also, the “%Difference from Control” value with rat paw edema (100 mg/kg) was -9%; with rat paw edema (400 mg/kg), -25%.

Take `O=[N+]([O-])c1ccc(Nc2nc3ccccc3n3ccnc23)cc1` [Compound 189]: the “Parts Per Million Inhibitions of T. ajelloi” value in the test on Trichophyton ajelloi is on record as 100 Parts Per Million. In the test on Trichophyton rubrum, the “Parts Per Million Inhibitions of T. rubrum” value is given as 100 Parts Per Million.

The record behind these values is patent US4198508A, “Process for preparing 4-substituted imidazo[1,2-a]quinoxalines” (Westwood Pharmaceuticals Inc., priority 1977, dated 1980).
